The assay deals with T1, human kinase Mps-1 (Homo sapiens, UniProt P33981).
T1 construct: N-terminally GST-tagged human full length recombinant Mps-1 kinase; GST (N); purchased Invitrogen, Karslruhe, Germany PV4071
T1 sequence (P33981 1-857): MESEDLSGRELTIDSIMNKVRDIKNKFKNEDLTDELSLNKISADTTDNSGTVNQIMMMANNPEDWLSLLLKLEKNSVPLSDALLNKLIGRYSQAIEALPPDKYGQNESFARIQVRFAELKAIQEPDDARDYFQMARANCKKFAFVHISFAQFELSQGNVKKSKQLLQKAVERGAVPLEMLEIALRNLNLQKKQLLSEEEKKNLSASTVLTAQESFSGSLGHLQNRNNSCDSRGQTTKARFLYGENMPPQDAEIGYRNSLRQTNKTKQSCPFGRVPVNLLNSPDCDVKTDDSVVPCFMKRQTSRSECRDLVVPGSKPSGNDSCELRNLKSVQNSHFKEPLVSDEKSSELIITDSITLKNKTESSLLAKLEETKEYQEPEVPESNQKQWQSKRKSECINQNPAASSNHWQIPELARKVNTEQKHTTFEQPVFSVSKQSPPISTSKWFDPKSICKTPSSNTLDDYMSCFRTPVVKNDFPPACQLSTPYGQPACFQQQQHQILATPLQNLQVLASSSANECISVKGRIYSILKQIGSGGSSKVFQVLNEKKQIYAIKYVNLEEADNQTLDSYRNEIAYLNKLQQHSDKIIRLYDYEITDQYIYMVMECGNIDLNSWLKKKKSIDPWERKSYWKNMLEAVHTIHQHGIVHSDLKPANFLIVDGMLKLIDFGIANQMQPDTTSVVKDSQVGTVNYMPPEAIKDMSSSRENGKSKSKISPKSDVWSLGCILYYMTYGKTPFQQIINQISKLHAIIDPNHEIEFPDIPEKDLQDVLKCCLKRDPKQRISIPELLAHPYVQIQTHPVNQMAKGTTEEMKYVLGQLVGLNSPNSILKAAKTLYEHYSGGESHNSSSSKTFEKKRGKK
Nature of the assay: Mps-1 kinase assay (TR-FRET). Type of assay: biochemical. Particulars: N-terminally GST-tagged human full length recombinant Mps-1; 10 μM ATP; 1 μM peptide substrate; 60 min at 22° C. Put shortly: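 GST-tagged full-length recombinant Mps-1 at about 1 nM final, adjusted per lot for linear range, phosphorylated a biotinylated peptide. Product bound Eu-anti-phospho(Ser/Thr) antibody over 1 h at 22° C and was read by TR-FRET to streptavidin-XLent. Compounds scored for kinase inhibition.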
A general note: In TR-FRET formats the signal depends on donor and acceptor labels being close together.

The structures appear in SMILES notation.

A word on the IC50: it is the concentration needed to halve the response being measured.

In the case of `Cc1cc(-c2cnc3c(NCCC(F)(F)F)cc(Oc4cccc(F)c4)cn23)ccc1C(=O)N[C@H]1C[C@@H]1F` (relative stereo) [Example 12 (rac.-A), N-[rel-(1S,2S)-2-fluorocyclopropyl]-4-{6-(3-fluorophenoxy)-8-[(3,3,3-trifluoropropyl)amino]imidazo[1,2-a]pyridin-3-yl}-2-methylbenzamide], the IC50 stood at 1.1 nM.

As to `CNC(=O)c1ccc(-c2cnc3c(NCCC(F)(F)F)cc(-c4ccc(C(=O)OC)c(C)c4)cn23)cc1C` [Example 140, Methyl 2-methyl-4-{3-[3-methyl-4-(methylcarbamoyl)phenyl]-8-[(3,3,3-trifluoropropyl)amino]imidazo[1,2-a]pyridin-6-yl}benzoate], the IC50 turned out to be 36.1 nM.

`Cc1cc(-c2cnc3c(NCCC(F)(F)F)cc(Sc4ccccc4)cn23)ccc1C(=O)NC1CC1` [Example 3-3, N-cyclopropyl-2-methyl-4-{6-(phenylsulfanyl)-8-[(3,3,3-trifluoropropyl)amino]imidazo[1,2-a]pyridin-3-yl} benzamide]: the IC50 came to 0.5 nM.

Take `Cc1ccc(F)cc1Oc1cc(NCCC(F)(F)F)c2ncc(-c3ccc(C(=O)NC4CCC4)c(C)c3)n2c1` [Example 47, N-cyclobutyl-4-{6-(5-fluoro-2-methylphenoxy)-8-[(3,3,3-trifluoropropyl)amino]imidazo[1,2-a]pyridin-3-yl}-2-methylbenzamide]: the IC50 was 7.6 nM.

With `CNC(=O)c1ccc(-c2cnc3c(NCCC(F)(F)F)cc(Oc4cccc(OC(F)(F)F)c4)cn23)cc1C` [Example 78, N,2-dimethyl-4-{6-[3-(trifluoromethoxy)phenoxy]-8-[(3,3,3-trifluoropropyl)amino]imidazo[1,2-a]pyridin-3-yl}benzamide], the IC50 worked out at 30.3 nM.

Turning to `COCCNc1cc(Oc2cccc(F)c2F)cn2c(-c3ccc(C(=O)NC4CC4)c(C)c3)cnc12` [Example 173, N-cyclopropyl-4-{6-(2,3-difluorophenoxy)-8-[(2-methoxyethyl)amino]imidazo[1,2-a]pyridin-3-yl}-2-methylbenzamide], the IC50 turned out to be 8.2 nM.

For the molecule `CCc1cc(NCCC(F)(F)F)c2ncc(-c3ccc(C(=O)N[C@H]4C[C@@H]4F)c(C)c3)n2c1` (relative stereo) [Example 104, 4-{6-Ethyl-8-[(3,3,3-trifluoropropyl)amino]imidazo[1,2-a]pyridin-3-yl}-N-[rel-(1S,2S)-2-fluorocyclopropyl]-2-methylbenzamide], the IC50 worked out at 65.3 nM.

Regarding `CCNC(=O)c1ccc(-c2cnc3c(NCCC(F)(F)F)cc(Oc4cccc(F)c4F)cn23)cc1C` [Example 73, 4-{6-(2,3-Difluorophenoxy)-8-[(3,3,3-trifluoropropyl)amino]imidazo[1,2-a]pyridin-3-yl}-N-ethyl-2-methylbenzamide], the IC50 came to 1.2 nM.

Consider `COc1ccc(Oc2cc(NCC(F)F)c3ncc(-c4ccc(C(=O)NC5CC5)c(C)c4)n3c2)cc1F` [Example 167, N-cyclopropyl-4-{8-[(2,2-difluoroethyl)amino]-6-(3-fluoro-4-methoxyphenoxy)imidazo[1,2-a]pyridin-3-yl}-2-methylbenzamide], for which the IC50 was 6.2 nM.

As for `Cc1cc(-c2cnc3c(NCCC(F)(F)F)cc(/C=C\CO)cn23)ccc1C(=O)N[C@@H]1C[C@H]1F` (relative stereo) [Example 118, N-[rel-(1R,2R)-2-fluorocyclopropyl]-4-{6-[(1Z)-3-hydroxyprop-1-en-1-yl]-8-[(3,3,3-trifluoropropyl)amino]imidazo[1,2-a]pyridin-3-yl}-2-methylbenzamide], the IC50 was 19.9 nM.

Turning to `COc1ccccc1-c1cc(NCCC(F)(F)F)c2ncc(-c3ccc(C(=O)NC4(C)CC4)c(C)c3)n2c1` [Example 80], the IC50 worked out at 35.6 nM.

On to `Cc1ccc(F)cc1Oc1cc(NCCC(F)(F)F)c2ncc(-c3ccc(C(=O)NC4(C#N)CC4)c(C)c3)n2c1` [Example 28, N-(1-cyanocyclopropyl)-4-{6-(5-fluoro-2-methylphenoxy)-8-[(3,3,3-trifluoropropyl)amino]imidazo[1,2-a]pyridin-3-yl}-2-methylbenzamide], for which the IC50 is 13.9 nM.

For the molecule `CNC(=O)c1ccc(-c2cnc3c(NCCC(F)(F)F)cc(CCO)cn23)cc1C` [Example 142, 4-{6-(2-Hydroxyethyl)-8-[(3,3,3-trifluoropropyl)amino]imidazo[1,2-a]pyridin-3-yl}-N,2-dimethylbenzamide], the IC50 worked out at 244 nM.

Take `CCNC(=O)c1ccc(-c2cnc3c(NCCC(F)(F)F)cc(C#CCO)cn23)cc1C` [Example 21, N-ethyl-4-{6-(3-hydroxyprop-1-yn-1-yl)-8-[(3,3,3-trifluoropropyl)amino]imidazo[1,2-a]pyridin-3-yl}-2-methylbenzamide]: the IC50 was determined as 33.7 nM.

On to `Cc1cc(-c2cnc3c(NCCC(F)(F)F)cc(Oc4cccc(F)c4)cn23)ccc1C(=O)NC1(C#N)CC1` [Example 13, N-(1-cyanocyclopropyl)-4-{6-(3-fluorophenoxy)-8-[(3,3,3-trifluoropropyl)amino]imidazo[1,2-a]pyridin-3-yl}-2-methylbenzamide], for which the IC50 is 11.1 nM.

For `COc1cccc(Oc2cc(NCCC(F)(F)F)c3ncc(-c4ccc(C(=O)NC5(C#N)CC5)c(C)c4)n3c2)c1` [Example 53, N-(1-cyanocyclopropyl)-4-{6-(3-methoxyphenoxy)-8-[(3,3,3-trifluoropropyl)amino]imidazo[1,2-a]pyridin-3-yl}-2-methylbenzamide], the IC50 turned out to be 19.5 nM.

Regarding `Cc1cc(-c2cnc3c(NCCC(F)(F)F)cc(Oc4ccc(OC(F)(F)F)c(F)c4)cn23)ccc1C(=O)NC1CC1` [Example 83, N-cyclopropyl-4-{6-[3-fluoro-4-(trifluoromethoxy)phenoxy]-8-[(3,3,3-trifluoropropyl)amino]imidazo[1,2-a]pyridin-3-yl}-2-methylbenzamide], the IC50 amounted to 68.7 nM.

On to `CNC(=O)c1ccc(-c2cnc3c(NCCC(F)(F)F)cc(C(C)O)cn23)cc1C` (racemic) [Example 144, 4-{6-[(1RS)-1-Hydroxyethyl]-8-[(3,3,3-trifluoropropyl)amino]imidazo[1,2-a]pyridin-3-yl}-N,2-dimethylbenzamide], for which the IC50 is 233 nM.

`COc1ccc(Oc2cc(NCCC(F)(F)F)c3ncc(-c4ccc(C(=O)NC5CC5)c(C)c4)n3c2)cc1F` [Example 42, N-cyclopropyl-4-{6-(3-fluoro-4-methoxyphenoxy)-8-[(3,3,3-trifluoroprorwl)amino]imidazo[1,2-a]pyridin-3-yl}-2-methylbenzamide]: the concentration for half-maximal inhibition (IC50) turned out to be 0.4 nM.

`Cc1cc(-c2cnc3c(NCCC(F)(F)F)cc(Oc4cccc(O)c4)cn23)ccc1C(=O)NC1(C)CC1` [Example 137, 4-{6-(3-Hydroxyphenoxy)-8-[(3,3,3-trifluoropropyl)amino]imidazo[1,2-a]pyridin-3-yl}-2-methyl-N-(1-methylcyclopropyl)benzamide]: the IC50 came out at 2.2 nM.

Regarding `Cc1cc(-c2cnc3c(NCCC(F)(F)F)cc(Oc4cc(F)ccc4O)cn23)ccc1C(=O)NC1CC1` [Example 175, N-cyclopropyl-4-{6-(5-fluoro-2-hydroxyphenoxy)-8-[(3,3,3-trifluoropropyl)amino]imidazo[1,2-a]pyridin-3-yl}-2-methylbenzamide], the IC50 was found to be 3 nM.

As for `Cc1cc(-c2cnc3c(NCCC(F)(F)F)cc(Oc4cccc(F)c4F)cn23)ccc1C(=O)NC1(C#N)CC1` [Example 70, N-(1-cyanocyclopropyl)-4-{6-(2,3-difluorophenoxy)-8-[(3,3,3-trifluoropropyl)amino]imidazo[1,2-a]pyridin-3-yl}-2-methylbenzamide], the IC50 worked out at 3.8 nM.

As to `C=Cc1cc(NCCC(F)(F)F)c2ncc(-c3ccc(C(=O)NC4(C#N)CC4)c(C)c3)n2c1` [Example 96, N-(1-cyanocyclopropyl)-2-methyl-4-{8-[(3,3,3-trifluoropropyl)amino]-6-vinylimidazo[1,2-a]pyridin-3-yl}benzamide], the IC50 is 123 nM.

For `Cc1cc(-c2cnc3c(NCCC(F)(F)F)cc(Oc4cccc(F)c4)cn23)ccc1C(=O)NC1(C2CC2)CC1` [Example 49, N-[1,1′-bi(cyclopropyl)-1-0]-4-{6-(3-fluorophenoxy)-8-[(3,3,3-trifluoropropyl)amino]imidazo[1,2-a]pyridin-3-yl}-2-methylbenzamide], the IC50 came out at 97.6 nM.

As for `C/C=C/c1cc(NCCC(F)(F)F)c2ncc(-c3ccc(C(=O)NC4(C#N)CC4)c(C)c3)n2c1` [Example 115, N-(1-cyanocyclopropyl)-2-methyl-4-{6-[(1E)-prop-1-en-1-yl]-8-[(3,3,3-trifluoropropyl)amino]imidazo[1,2-a]pyridin-3-yl}benzamide], the IC50 was determined as 59.4 nM.
